Test results: patent US4210667A, “Pharmaceutical preparations containing coumarin carboxylic acid derivatives” (Pfizer Inc., priority 1979, dated 1980)

Legend:
[1] = tested on: sorbitol accumulation in the sciatic nerve of streptozotocinized (i.e., diabetic) rats; assay: Inhibition of sorbitol accumulation in the sciatic nerve of streptozotocinized (diabetic) rats; assay type: in vivo, rat; conditions: 25 mg./kg. t.i.d. oral, at 4, 8 and 24 hours after streptozotocin; measured at 27 hours; vs untreated control; Examples 1, 5: average of two tests
Description: (§1) The ability of the active ingredients of the preparations, the derivatives,to control chronic diabetic complications and enzymatic reduction of aldoses may be determined by a number of standard biological or pharmacological tests. These include (1) measuring the ability to inhibit the enzyme activity or isolated aldose reductase; (2) measuring the ability to reduce or inhibit sorbitol accumulation in the sciatic nerve of acutely streptozotocinized (i.e., diabetic) rats; (3) measuring the ability to reverse already-elevated sorbitol levels in the sciatic nerve and lens of chronic streptozocin-induced diabetic rats; (4) measuring the ability to prevent or inhibit galactitol formation in the lens of acutely galactosemic rats; and (5) measuring the ability to delay cataract formation and reduce the severity of lens opacities in chronic galactosemic rats.
Some of the Examples of derivatives prepared above were also tested for their ability to reduce or inhibit sorbitol accumulation in the sciatic nerve of streptozotocinized (i.e., diabetic) rats essentially by the procedure described in U.S. Pat. No. 3,821,383. In the present study, the amount of sorbitol accumulation in the sciatic nerves was measured 27 hours after induction of diabetes. The compounds were administered orally at the dose level indicated at 4, 8 and 24 hours following the administration of streptozotocin. The results obtained in this manner are presented in terms of percent inhibition (%) afforded by the test compound compared to the control where no compound was administered (i.e., the untreated animal where sorbitol levels normally rise from approximately […] tissue to as high as […] tissue in the 27-hour test period).

aldose reductase = biological target: T1, aldose reductase (Bos taurus, UniProt P16116); assay: Aldose reductase inhibitory activity (partially purified enzyme from calf lens); assay type: biochemical; conditions: 10^-4 M, relative to untreated controls, Examples 2, 4, 5: average of two tests, read-out: Degree of Inhibition at 10^-4 Molar
T1 construct: partially purified aldose reductase enzyme obtained from calf lens; from tissue; host or cells: calf lens
Description: as §1
The derivatives prepared in Examples 1-7 were tested for their ability to reduce or inhibit aldose reductase enzyme activity, following the procedure described in U.S. Pat. No. 3,821,383 and based on the procedure of Hayman et. al., Journal of Biological Chemistry, 240, 877 (1965). The substrate employed was partially purified aldose reductase enzyme obtained from calf lens. The drugs were tested at a level of 10^-4 M to determine the degree of inhibition of enzyme activity relative to untreated controls.

Question: For `Cc1cc2oc(=O)c(C)c(CC(=O)O)c2cc1C` [Example 1, 3,6,7-trimethylcoumarin-4-acetic acid], which “% Inhibition at Dose (sorbitol accumulation in sciatic nerve)” value (shortened to “% Inhibition at Dose”) [1] is on record?
Answer: 21%

Question: What about the inhibition at 100 µM (aldose reductase) of the same molecule?
Answer: 81%

Question: For `O=C(O)Cc1cc(=O)oc2c1cc(Cl)c1ccccc12` [Example 2, 6-chloro-1:2-alpha-naphthapyrone-4-acetic acid], which “% Inhibition at Dose” value [1] is on record?
Answer: 9%

Question: And the inhibition at 100 µM (aldose reductase)?
Answer: 91%

Question: With `Cc1cc(C)c2c(CC(=O)O)cc(=O)oc2c1` [Example 3, 5,7-dimethylcoumarin-4-acetic acid] as the molecule, how does the “% Inhibition at Dose” value [1] read?
Answer: 11%

Question: What about the inhibition at 100 µM (aldose reductase) of the same molecule?
Answer: 91%

Question: For `Cc1ccc2c(CC(=O)O)cc(=O)oc2c1` [Example 4, 7-methylcoumarin-4-acetic acid], which inhibition at 100 µM (aldose reductase) is on record?
Answer: 94%

Question: Which “% Inhibition at Dose” value [1] does the source give for `Cc1cc2oc(=O)cc(CC(=O)O)c2cc1C` [Example 5, 6,7-dimethylcoumarin-4-acetic acid] here?
Answer: 4%

Question: And the inhibition at 100 µM (aldose reductase)?
Answer: 94%

Question: Which inhibition at 100 µM (aldose reductase) does the source give for `Cc1cc(Cl)cc2c(C(=O)O)cc(=O)oc12` [Example 6, 6-chloro-8-methylcoumarin-4-carboxylic acid] here?
Answer: 65%
